The record followed here is PubChem BioAssay (NCI).

Structures are written as SMILES.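 Method: 48-hour compound exposure of cells in 96-well plates, five concentrations, linear interpolation of endpoints. GI50 is the concentration that inhibits growth by half. TGI: total growth inhibition.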

Among the test systems are BT-549 breast; MDA-N; MCF7 breast; HOP-18 NSCLC; M19-MEL melanoma; LXFL 529 NSCLC; XF 498 CNS; SNB-78 CNS.
What all share (test): NCI-60 cell line screen, 48 h

`O=C1c2c(c3c4ccccc4n(CCCCCCBr)c3c3[nH]c4ccccc4c23)C(=O)N1O`: in the assay on BT-549 breast, the GI50 was 1.83 µM and the TGI is 6.53 µM.

Turning to `COc1cnc2cc(C(=O)O)c3c([N+](=O)[O-])cccc3c2c1`, the TGI in the assay on MDA-N, in the assay on BT-549 breast and in the assay with MCF7 breast was > 100 µM in each case.

Turning to `CC1OC(O[C@H]2C[C@@H](O)[C@]3(CO)[C@H]4[C@H](O)C[C@]5(C)[C@@H](C6=CC(=O)OC6)CC[C@]5(O)[C@@H]4CC[C@]3(O)C2)C(O)C(O)C1O` (some centres not stated), the GI50 in the assay with MDA-N was 18.8 µM; with BT-549 breast, 18 µM; in the assay on MCF7 breast, 22.9 µM. Besides, the results for the TGI in the assay on MDA-N, in the assay on BT-549 breast and with MCF7 breast were 33.7 µM, 32.7 µM and 42.7 µM, respectively.

With `Cc1nc2cccc([N+](=O)[O-])c2c(NCCCN(C)C)c1C`, the TGI is > 100 µM in the assay on MDA-N and 60.6 µM in the assay with MCF7 breast.

As for `CNC(=O)OCc1c(COC(=O)NC)c(-c2ccc(Cl)c(Cl)c2)n2c1SCC2`, the TGI in the assay on MDA-N was 42.7 µM; with BT-549 breast it was 22.4 µM; in the assay on MCF7 breast, 27.2 µM. For the same compound, the GI50 with BT-549 breast is 6.23 µM.

As for `Nc1ccn(C2O[C@H](CO)[C@@H](O)[C@@H]2O)c(=O)n1` (some centres not stated), the TGI in the assay on BT-549 breast was > 100 µM. In addition, in the assay on MCF7 breast, the GI50 was 27.1 µM and the TGI is > 100 µM.

Take `CCCCC(=O)OCC1OC(n2cnc3c(=S)nc[nH]c32)C(OC(=O)CCCC)C1OC(=O)CCCC` (configuration not stated): in the assay with BT-549 breast, the GI50 is 1.11 µM and the TGI is > 28.7 µM. Further, in the assay with MCF7 breast, the GI50 was 1.13 µM and the TGI was > 100 µM.

`O=C1/C(=C/c2ccc(Br)cc2)C=C(c2ccccc2)N1CCc1ccccc1`: in the assay with BT-549 breast, the GI50 is 2.59 µM and the TGI was 9.06 µM. Moreover, in the assay on MCF7 breast, the GI50 is 3.42 µM and the TGI was determined as 32.7 µM.

With `CCCCNC1=C(C(=O)OCC)C(=O)CO1`, the TGI in the assay on HOP-18 NSCLC, in the assay on M19-MEL melanoma, in the assay with LXFL 529 NSCLC and in the assay on XF 498 CNS was > 100 µM in each case.

As for `CN1CCN(Cc2ccc(NC(=O)c3cncc(C#Cc4cnc(N)c5ccc(C#N)cc45)c3)cc2C(F)(F)F)CC1`, in the assay with BT-549 breast, the GI50 is 0.729 µM and the TGI came to 10.8 µM. Besides, in the assay on MCF7 breast, the GI50 is 0.688 µM and the TGI is 1.86 µM.

For the compound `CCOc1cccc(/C=N/NC(=O)c2ccccc2Nc2ccnc(C(F)(F)F)c2)c1O`, in the assay with BT-549 breast, the GI50 is 0.494 µM and the TGI was determined as 53.6 µM. Further, in the assay with MCF7 breast, the GI50 is 0.34 µM and the TGI came out at 25.4 µM.

`Cc1nn(CN2CCN(C)CC2)c(=S)n1/N=C/c1cccc2ccccc12`: in the assay with BT-549 breast, the GI50 is 21.1 µM and the TGI was determined as 47.3 µM. Besides, in the assay on MCF7 breast, the GI50 was 20.1 µM and the TGI is 50.9 µM.

Turning to `COc1cc(OC)cc(-c2ccc(-c3ccc(C(=N)N)o3)o2)c1`, in the assay with BT-549 breast, the GI50 was 6.91 µM and the TGI worked out at 20.1 µM. Further, in the assay with MCF7 breast, the GI50 was 1.8 µM and the TGI amounted to 4.31 µM.

As for `Cc1ccc(CS/C(=C\c2ccc([N+](=O)[O-])cc2)C(=O)c2ccc(F)cc2)cc1`, in the assay with BT-549 breast, the GI50 is 1.92 µM and the TGI came out at 4.38 µM.

Take `O=C(O)Cn1ccc(=O)c2ccc([N+](=O)[O-])cc21`: the TGI in the assay with MDA-N, in the assay with BT-549 breast and in the assay with MCF7 breast was > 100 µM throughout.

With `O=C(c1ccco1)c1nc2ccc(C(F)(F)F)cc2[n+]([O-])c1C(F)(F)F`, in the assay on BT-549 breast, the GI50 was 39.4 µM and the TGI is > 100 µM. In addition, in the assay on MCF7 breast, the GI50 is 41.6 µM and the TGI is > 100 µM.

Regarding `COC(=O)CCCCN=Cc1c(O)c(O)c(C(C)C)c2cc(C)c(-c3c(C)cc4c(C(C)C)c(O)c(O)c(C=NCCCCC(=O)OC)c4c3O)c(O)c12`, in the assay with BT-549 breast, the GI50 was 1.5 µM and the TGI stood at 23.8 µM. For the same compound, in the assay with MCF7 breast, the GI50 is 0.917 µM and the TGI came to 6.26 µM.

Regarding `N=C1CSC2=NC3=C(CCC/C3=C\c3ccccc3)C(c3ccccc3)N12` (configuration not stated), the TGI amounted to 18.3 µM in the assay on M19-MEL melanoma, 17 µM in the assay on LXFL 529 NSCLC, 35.1 µM in the assay with XF 498 CNS and 23.6 µM in the assay on SNB-78 CNS.

For `COC(=O)c1cc2c3ccccc3[nH]c2c2ncccc12`, in the assay on BT-549 breast, the GI50 is 17.9 µM and the TGI stood at 78.8 µM. Also, in the assay with MCF7 breast, the GI50 is 14.4 µM and the TGI was > 100 µM.

For the compound `COc1ccc(/C(=C2\O[C@@H]([C@H]3COC(C)(C)O3)[C@H]3OC(C)(C)O[C@@H]23)c2cc(OC)c(OC)c(OC)c2)cc1O`, the GI50 is 5.39 µM in the assay on BT-549 breast and 3.78 µM with MCF7 breast. The TGI with BT-549 breast and in the assay with MCF7 breast was > 100 µM in each case.

In the case of `COc1cc(/C=C/c2cc(/C=C/c3ccc(O)c(OC)c3)n(-c3ccccc3)n2)ccc1O`, the GI50 in the assay on BT-549 breast was 0.631 µM; in the assay on MCF7 breast it was 0.265 µM. In addition, the TGI in the assay with BT-549 breast is 22.8 µM; in the assay with MCF7 breast it was 1.7 µM.

Turning to `O=C1CNCCCN2CCN(CCCNCC(=O)Nc3ccc(cc3)S(=O)(=O)c3ccc(cc3)NC(=O)CNCCCN3CCN(CCCNCC(=O)Nc4ccc(cc4)S(=O)(=O)c4ccc(cc4)N1)CC3)CC2`, the values for the TGI in the assay with MDA-N, in the assay on BT-549 breast and in the assay with MCF7 breast were 42.2 µM, 58.4 µM and > 100 µM, respectively.

As to `N#Cc1ccc(C#Cc2ccccc2C#CCCCCO)cc1`, in the assay with BT-549 breast, the GI50 was 14.7 µM and the TGI was 29.3 µM. In the assay on MCF7 breast, the GI50 was 22.1 µM and the TGI came to 45.6 µM.

`Cc1ccc(C)c(NC(=O)CC/C(=N\NC(=O)C(=O)NN)C(C)C(=O)c2ccc(O)cc2)c1` (configuration not stated): the TGI with HOP-18 NSCLC, in the assay with M19-MEL melanoma, with LXFL 529 NSCLC and in the assay with SNB-78 CNS was > 100 µM in each case.

With `CN(C)CCNc1cc(-c2ccccc2)nc2ccccc12`, in the assay with BT-549 breast, the GI50 was 11.5 µM and the TGI amounted to 28.8 µM. Further, in the assay on MCF7 breast, the GI50 was 3.68 µM and the TGI came to 19.7 µM.
